Source: ChEMBL document CHEMBL5634096, “Design, synthesis and bioevaluation of PI3Kα-selective inhibitors as potential colorectal cancer drugs” (Eur J Med Chem, 2023)
Activity calls are given as the source filed them. The rule behind the calls is not given here.

Columns and labels:
[1] = target: Phosphatidylinositol 4,5-bisphosphate 3-kinase catalytic subunit beta isoform (Homo sapiens, UniProt P42338); assay: Inhibition of PI3Kbeta (unknown origin) by ADP-Glo luminescent kinase assay
[2] = Metabolic stability in Sprague-Dawley rat liver microsomes assessed as half life at 5 ug/ml incubated for 1 hr in presence of NADPH by LC-MS/MS analysis; type: ADME, Microsome; conditions: dose 5 µg/ml
[3] = Cytotoxicity against human NCM460 cells assessed as reduction in cell viability incubated for 24 to 48 hrs by CCK-8 assay; type: toxicity, cell-based
HCT-116 [4] = assay: Induction of cell cycle arrest at G1/G0 phase in human HCT-116 cells assessed as decrease in cyclinE1 expression incubated for 48 hrs by Western blotting analysis; type: functional, cell-based; conditions: dose 3-12 µM
HCT-116 [5] = assay: Induction of apoptosis in human HCT-116 cells assessed as increased total apoptotic cells at 6 uM incubated for 48 hrs by Annexin V-FITC and propidium iodide staining based flow cytometry analysis (reference value: 4.22 %); type: functional
[6] = Clearance in Sprague-Dawley rat at 5 mg/kg, iv measured upto 24 hrs by LC-MS analysis; type: ADME, organism-based; conditions: in vivo
[7] = AUC (0 to t) in Sprague-Dawley rat at 5 mg/kg, iv measured upto 24 hrs by LC-MS analysis; type: ADME, organism-based; conditions: in vivo
Cytochrome P450 1A2 = Cytochrome P450 1A2 (Homo sapiens, UniProt P05177); assay: Inhibition of CYP1A2 in human liver microsomes using phenacetin as substrate pre-incubated for 30 mins followed by substrate addition and measured after 15 mins in presence of NADPH by LC/MS analysis; type: ADME, Microsome
[8] = Volume of distribution in Sprague-Dawley rat at 5 mg/kg, iv measured upto 24 hrs by LC-MS analysis; type: ADME, organism-based; conditions: in vivo
[9] = AUC (0 to infinity) in Sprague-Dawley rat at 5 mg/kg, iv measured upto 24 hrs by LC-MS analysis; type: ADME, organism-based; conditions: in vivo
[10] = target: Phosphatidylinositol 4,5-bisphosphate 3-kinase catalytic subunit alpha isoform (Homo sapiens, UniProt P42336); assay: Inhibition of PI3Kalpha (unknown origin) by ADP-Glo luminescent kinase assay
HepG2 = assay: Antiproliferative activity against human HepG2 cells assessed as reduction in cell viability at 10 uM incubated for 24 to 48 hrs by CCK-8 assay; type: functional, cell-based; conditions: time lower […], time upper 48.0 hrs
HCT-116 [11] = assay: Antiproliferative activity against human HCT-116 cells assessed as inhibition of mTOR phosphorylation incubated for 48 hrs by Western blotting analysis; type: functional, cell-based; conditions: dose 3-12 µM
HCT-116 [12] = assay: Antiproliferative activity against human HCT-116 cells expressing PIK3CA with H1047R mutation assessed as reduction in cell viability incubated for 24 to 48 hrs by CCK-8 assay; type: functional, cell-based
HEK-293T = assay: Cytotoxicity against human HEK293T cells assessed as reduction in cell viability at 10 uM incubated for 24 to 48 hrs by CCK-8 assay; type: toxicity, cell-based; conditions: time 24-48 hrs
[13] = target: T1, Phosphatidylinositol 4,5-bisphosphate 3-kinase catalytic subunit delta isoform (Homo sapiens, UniProt O00329); assay: Inhibition of PI3Kdelta (unknown origin) by ADP-Glo luminescent kinase assay
T1 sequence (O00329 whole entry): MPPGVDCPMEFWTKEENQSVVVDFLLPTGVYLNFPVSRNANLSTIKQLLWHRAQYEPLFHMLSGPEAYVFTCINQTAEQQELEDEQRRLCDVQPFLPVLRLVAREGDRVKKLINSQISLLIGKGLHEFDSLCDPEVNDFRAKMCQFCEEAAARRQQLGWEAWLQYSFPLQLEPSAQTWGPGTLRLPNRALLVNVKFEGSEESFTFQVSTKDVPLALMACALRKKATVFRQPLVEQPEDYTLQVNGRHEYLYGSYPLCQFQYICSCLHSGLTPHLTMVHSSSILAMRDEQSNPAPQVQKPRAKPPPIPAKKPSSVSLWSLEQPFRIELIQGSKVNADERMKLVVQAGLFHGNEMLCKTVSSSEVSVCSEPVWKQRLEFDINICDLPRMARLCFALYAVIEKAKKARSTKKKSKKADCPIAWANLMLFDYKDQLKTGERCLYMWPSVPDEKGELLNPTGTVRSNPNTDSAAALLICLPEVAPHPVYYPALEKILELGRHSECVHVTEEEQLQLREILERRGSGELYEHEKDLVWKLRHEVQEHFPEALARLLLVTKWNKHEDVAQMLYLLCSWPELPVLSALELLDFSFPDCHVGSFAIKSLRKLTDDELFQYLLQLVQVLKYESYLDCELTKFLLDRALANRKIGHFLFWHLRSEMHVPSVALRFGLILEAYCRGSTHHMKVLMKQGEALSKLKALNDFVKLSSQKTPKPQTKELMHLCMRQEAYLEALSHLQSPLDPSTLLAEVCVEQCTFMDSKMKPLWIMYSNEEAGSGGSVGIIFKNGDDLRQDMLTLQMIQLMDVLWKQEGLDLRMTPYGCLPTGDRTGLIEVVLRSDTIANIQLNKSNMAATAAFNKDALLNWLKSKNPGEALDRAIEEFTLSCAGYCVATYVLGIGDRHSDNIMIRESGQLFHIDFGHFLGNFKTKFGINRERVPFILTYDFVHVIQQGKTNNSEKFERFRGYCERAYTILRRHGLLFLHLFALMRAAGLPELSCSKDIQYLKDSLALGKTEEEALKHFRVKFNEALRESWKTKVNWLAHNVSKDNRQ

DU-145 = assay: Antiproliferative activity against human DU-145 cells assessed as reduction in cell viability at 10 uM incubated for 24 to 48 hrs by CCK-8 assay; type: functional, cell-based; conditions: time lower […], time upper 48.0 hrs
HCT-116 [14] = assay: Antiproliferative activity against human HCT-116 cells assessed as inhibition of PI3K phosphorylation incubated for 48 hrs by Western blotting analysis; type: functional, cell-based; conditions: dose 3-12 µM
Cytochrome P450 3A4 = Cytochrome P450 3A4 (Homo sapiens, UniProt P08684); assay: Inhibition of CYP3A4 in human liver microsomes using midazolam as substrate pre-incubated for 30 mins followed by substrate addition and measured after 15 mins in presence of NADPH by LC/MS analysis; type: ADME, Microsome
HOS = assay: Antiproliferative activity against human HOS cells assessed as reduction in cell viability at 10 uM incubated for 24 to 48 hrs by CCK-8 assay; type: functional, cell-based; conditions: time lower […], time upper 48.0 hrs
[15] = Metabolic stability in Sprague-Dawley rat plasma assessed as compound remaining measured upto 3 hrs by LC-MS/MS analysis; type: ADME, cell-free
PaTu 8988t = assay: Antiproliferative activity against human PaTu 8988t cells assessed as reduction in cell viability at 10 uM incubated for 24 to 48 hrs by CCK-8 assay; type: functional, cell-based; conditions: time lower […], time upper 48.0 hrs
HCT-116 [16] = assay: Induction of apoptosis in human HCT-116 cells assessed as increase in total apoptotic cells at 3 uM incubated for 48 hrs by Annexin V-FITC and propidium iodide staining based flow cytometry analysis (reference value: 4.22 %); type: functional
MKN-45 = assay: Antiproliferative activity against human MKN-45 cells assessed as reduction in cell viability at 10 uM incubated for 24 to 48 hrs by CCK-8 assay; type: functional, cell-based; conditions: time lower […], time upper 48.0 hrs
TE-1 = assay: Antiproliferative activity against human TE-1 cells assessed as reduction in cell viability at 10 uM incubated for 24 to 48 hrs by CCK-8 assay; type: functional, cell-based; conditions: time lower […], time upper 48.0 hrs

Chain of Cytochrome P450 3A4 (P08684 whole entry): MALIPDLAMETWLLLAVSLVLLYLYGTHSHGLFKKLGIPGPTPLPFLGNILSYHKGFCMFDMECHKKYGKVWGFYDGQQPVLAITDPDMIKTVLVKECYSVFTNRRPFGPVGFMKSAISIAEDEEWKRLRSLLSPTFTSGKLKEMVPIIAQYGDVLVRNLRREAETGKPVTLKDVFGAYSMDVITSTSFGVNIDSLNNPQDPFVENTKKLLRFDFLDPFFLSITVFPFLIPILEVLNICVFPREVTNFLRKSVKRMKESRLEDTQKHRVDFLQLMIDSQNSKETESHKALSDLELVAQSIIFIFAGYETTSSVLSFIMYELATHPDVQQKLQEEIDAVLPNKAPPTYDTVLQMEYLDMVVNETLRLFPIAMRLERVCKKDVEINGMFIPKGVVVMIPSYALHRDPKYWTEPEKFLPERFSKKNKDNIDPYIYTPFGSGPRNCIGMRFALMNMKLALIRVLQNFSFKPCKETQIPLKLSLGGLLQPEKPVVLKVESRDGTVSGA
Chain of Phosphatidylinositol 4,5-bisphosphate 3-kinase catalytic subunit beta isoform (P42338 whole entry, canonical isoform): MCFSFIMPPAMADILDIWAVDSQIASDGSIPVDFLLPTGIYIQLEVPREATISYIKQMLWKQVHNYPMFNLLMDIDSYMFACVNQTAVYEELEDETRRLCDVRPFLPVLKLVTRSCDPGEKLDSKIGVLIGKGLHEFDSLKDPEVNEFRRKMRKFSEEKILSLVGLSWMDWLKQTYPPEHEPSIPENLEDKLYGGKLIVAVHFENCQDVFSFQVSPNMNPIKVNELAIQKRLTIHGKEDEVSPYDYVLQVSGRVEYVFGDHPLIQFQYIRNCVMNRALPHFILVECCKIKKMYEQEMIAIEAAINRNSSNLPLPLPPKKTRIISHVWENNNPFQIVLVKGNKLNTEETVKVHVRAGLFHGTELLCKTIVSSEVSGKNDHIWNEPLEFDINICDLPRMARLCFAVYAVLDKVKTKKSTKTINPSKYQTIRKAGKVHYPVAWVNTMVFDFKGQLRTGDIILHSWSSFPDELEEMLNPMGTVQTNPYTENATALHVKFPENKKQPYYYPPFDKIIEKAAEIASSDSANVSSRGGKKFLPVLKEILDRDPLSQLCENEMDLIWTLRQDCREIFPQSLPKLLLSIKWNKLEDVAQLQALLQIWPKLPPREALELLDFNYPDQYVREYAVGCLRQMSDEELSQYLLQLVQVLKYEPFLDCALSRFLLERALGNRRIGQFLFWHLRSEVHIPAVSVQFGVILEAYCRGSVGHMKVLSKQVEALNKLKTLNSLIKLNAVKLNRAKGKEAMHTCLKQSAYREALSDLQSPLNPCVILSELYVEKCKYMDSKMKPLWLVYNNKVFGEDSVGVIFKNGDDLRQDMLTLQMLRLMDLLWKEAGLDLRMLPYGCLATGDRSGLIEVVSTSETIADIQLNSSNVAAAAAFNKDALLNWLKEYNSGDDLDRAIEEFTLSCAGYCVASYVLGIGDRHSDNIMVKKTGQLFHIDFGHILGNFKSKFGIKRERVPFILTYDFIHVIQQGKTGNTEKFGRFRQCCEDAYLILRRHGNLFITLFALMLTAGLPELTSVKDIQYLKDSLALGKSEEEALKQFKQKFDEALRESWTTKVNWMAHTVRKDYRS
Chain of Phosphatidylinositol 4,5-bisphosphate 3-kinase catalytic subunit alpha isoform (P42336 whole entry, canonical isoform): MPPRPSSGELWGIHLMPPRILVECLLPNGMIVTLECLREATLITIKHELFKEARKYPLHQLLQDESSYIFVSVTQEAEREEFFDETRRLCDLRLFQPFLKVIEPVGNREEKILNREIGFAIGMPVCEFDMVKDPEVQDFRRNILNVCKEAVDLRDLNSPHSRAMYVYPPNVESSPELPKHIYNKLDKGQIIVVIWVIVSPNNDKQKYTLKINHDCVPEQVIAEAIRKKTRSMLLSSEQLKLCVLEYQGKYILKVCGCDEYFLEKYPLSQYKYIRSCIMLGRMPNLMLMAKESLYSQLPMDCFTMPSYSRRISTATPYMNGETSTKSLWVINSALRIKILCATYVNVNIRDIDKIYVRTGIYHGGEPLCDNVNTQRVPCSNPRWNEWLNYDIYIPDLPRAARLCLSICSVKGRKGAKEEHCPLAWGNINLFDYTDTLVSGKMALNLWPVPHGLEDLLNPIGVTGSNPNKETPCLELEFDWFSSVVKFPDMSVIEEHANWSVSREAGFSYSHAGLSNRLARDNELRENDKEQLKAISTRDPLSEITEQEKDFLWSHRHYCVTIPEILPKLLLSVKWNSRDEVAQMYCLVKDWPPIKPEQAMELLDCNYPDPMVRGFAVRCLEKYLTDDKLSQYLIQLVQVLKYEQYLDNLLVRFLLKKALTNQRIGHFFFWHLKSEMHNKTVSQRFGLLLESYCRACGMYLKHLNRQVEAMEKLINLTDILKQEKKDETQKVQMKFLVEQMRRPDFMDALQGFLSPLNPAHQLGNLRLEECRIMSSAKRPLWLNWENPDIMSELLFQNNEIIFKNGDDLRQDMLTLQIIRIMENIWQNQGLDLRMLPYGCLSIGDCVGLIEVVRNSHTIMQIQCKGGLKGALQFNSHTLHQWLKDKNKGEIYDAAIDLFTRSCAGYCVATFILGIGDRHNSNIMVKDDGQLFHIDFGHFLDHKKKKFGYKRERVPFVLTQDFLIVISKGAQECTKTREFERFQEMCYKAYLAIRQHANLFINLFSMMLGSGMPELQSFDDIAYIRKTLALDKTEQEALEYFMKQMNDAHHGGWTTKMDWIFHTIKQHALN
Chain of Cytochrome P450 1A2 (P05177 whole entry): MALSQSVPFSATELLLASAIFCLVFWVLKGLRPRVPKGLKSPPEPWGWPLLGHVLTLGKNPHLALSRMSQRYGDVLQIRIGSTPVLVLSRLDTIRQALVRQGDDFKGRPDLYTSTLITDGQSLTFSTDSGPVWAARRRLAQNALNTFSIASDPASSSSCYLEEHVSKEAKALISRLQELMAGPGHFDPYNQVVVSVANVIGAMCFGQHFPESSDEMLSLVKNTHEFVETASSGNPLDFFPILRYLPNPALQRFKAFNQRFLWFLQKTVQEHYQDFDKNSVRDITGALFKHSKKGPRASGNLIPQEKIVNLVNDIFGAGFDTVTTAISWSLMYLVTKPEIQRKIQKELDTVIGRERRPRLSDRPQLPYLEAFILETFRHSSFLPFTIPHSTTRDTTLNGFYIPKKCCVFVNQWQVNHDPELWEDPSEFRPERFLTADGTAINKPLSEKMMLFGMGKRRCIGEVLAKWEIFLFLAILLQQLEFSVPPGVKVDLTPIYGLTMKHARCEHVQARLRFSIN

IC50 [1]: 0.45 µM
half-life at 5 ug/ml [2]: 3.61 h
clearance [6]: 10 mL/min/kg
AUC(0-t) at 24 h [7]: 8230 ng·h/mL
IC50 (Cytochrome P450 1A2): > 10 µM
Vd [8]: 5.2 L/kg
AUC(0-inf) [9]: 8250 ng·h/mL
IC50 [10]: 0.0025 µM
IC50 (HCT-116 [12]): 7.24 µM
IC50 [13]: 0.111 µM
IC50 (Cytochrome P450 3A4): > 10 µM
Stability [15]: Stable
Structure (SMILES): Nc1nc2cc(-c3ccc4ncc(N5C[C@@H]6OCCO[C@@H]6C5)nc4c3)ccc2o1
IC50 [3]: 49.7 µM
Activity (HCT-116 [4]): Dose-Dependent Effect
Activity (HCT-116 [5]): 12.31%
Activity (HepG2): Active
Activity (HCT-116 [11]): Dose-Dependent Effect
Activity (HEK-293T): Toxic
Activity (DU-145): Active
Activity (HCT-116 [14]): Dose-Dependent Effect
Activity (HOS): Active
Activity (PaTu 8988t): Active
Activity (HCT-116 [16]): 5.99%
Activity (MKN-45): Active
Activity (TE-1): Active
